Measured values as given in PubChem BioAssay (NCI).
Values joined by “and” are separate entries in the source; they are usually repeats but may differ in a detail not shown here. Equal entries are not always repeated.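 Method: 48-hour compound exposure of cells in 96-well plates, five concentrations, linear interpolation of endpoints. GI50: concentration for 50% inhibition of growth. Definition used: TGI = concentration required for complete inhibition of growth.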 Active and inactive are the calls of the source. Cut-off read from the data, not from the text of the source: active = GI50 below about 0.43 µM; inactive = the rest.

Columns and labels:
Assay in all cases: DTP human tumour cell line panel, 48 h
[1] = system: DMS 114 small cell lung
[2] = system: DMS 273 small cell lung
[3] = system: HOP-18 NSCLC
[4] = system: KM20L2 colon
[5] = system: LXFL 529 NSCLC
[6] = system: M19-MEL melanoma
[7] = system: SNB-78 CNS
[8] = system: XF 498 CNS
[9] = system: MDA-N

C/C=C(/CCC1NCCC2c3ccccc3NC12)[Si](C)(C)C (centres undefined)
TGI [1]: 14.3 µM | TGI [2]: 21.7 µM | TGI [3]: 26.7 µM | TGI [4]: 16.2 µM | TGI [5]: 13 µM | TGI [6]: 24.8 µM | TGI [7]: 26.2 µM | TGI [8]: 12.1 µM

COc1ccc(CNC(C)C(=O)O)cc1 (centres undefined)
TGI [9]: > 100 µM

COC1=C(Br)C(O)C2(C=C1Br)CC(C(=O)NCCCCNC(=O)C1=NOC3(C=C(Br)C(OC)=C(Br)C3O)C1)=NO2 (centres undefined)
TGI [9]: 39.7 µM

CN(C)CCC(CCN(C)C)=NOC(=O)c1ccccc1
TGI [1]: > 100 µM | TGI [2]: > 100 µM | TGI [3]: > 100 µM | TGI [4]: > 100 µM | TGI [5]: > 100 µM | TGI [6]: > 100 µM | TGI [8]: > 100 µM

NC(=O)c1ncn(CCN2CCN(C(=O)NCCCCCCNC(=O)N3CCN(CCn4cnc(C(N)=O)c4N)CC3)CC2)c1N
TGI [2]: > 100 µM | TGI [3]: > 100 µM | TGI [4]: > 100 µM | TGI [5]: > 100 µM | TGI [7]: > 100 µM | TGI [8]: > 100 µM

Cc1cc(Cl)ccc1NC(=O)CCCC(=O)C1CCC/C1=N\NC(=O)CC#N (centres undefined)
TGI [1]: > 100 µM | TGI [2]: > 100 µM | TGI [3]: 97.9 µM | TGI [4]: > 100 µM | TGI [5]: > 100 µM | TGI [6]: > 100 µM | TGI [7]: > 100 µM | TGI [8]: > 100 µM

COc1cccc(NC(=O)C(C)(C)C)c1SSc1c(NC(=O)C(C)(C)C)cccc1OC
TGI [2]: > 100 µM | TGI [3]: > 100 µM | TGI [4]: > 100 µM | TGI [5]: 29.9 µM | TGI [6]: > 100 µM | TGI [7]: 51.2 µM | TGI [8]: 35.7 µM

O=C(CC1(O)C(=O)Nc2ccccc21)c1ccc(F)cc1 (centres undefined)
TGI [1]: > 100 µM | TGI [2]: > 100 µM | TGI [4]: > 100 µM | TGI [5]: > 100 µM | TGI [6]: > 100 µM | TGI [7]: > 100 µM | TGI [8]: > 100 µM

NS(=O)(=O)c1ccc(NCc2cnc3ccccc3n2)cc1
TGI [9]: > 100 µM

Cc1cc2nc3ccc(=[N+](C)C)cc-3sc2cc1N
TGI [1]: 2.79 µM | TGI [2]: 12.2 µM | TGI [3]: 36.6 µM | TGI [4]: 41.5 µM | TGI [5]: 18.1 µM | TGI [6]: 0.354 µM | TGI [9]: 2.35 µM | TGI [7]: 54.9 µM

COC(=O)C1=Cc2cc(OC)c(OC)cc2[C@H](c2ccc(OC)c(OC)c2)C1C(=O)OC (some centres undefined)
TGI [1]: > 100 µM | TGI [2]: > 100 µM | TGI [4]: > 100 µM | TGI [5]: > 100 µM | TGI [6]: > 100 µM | TGI [7]: > 100 µM | TGI [8]: > 100 µM

Cn1c(=O)c2ccc(-c3ccc(Br)cc3)nc2n(C)c1=O
TGI [1]: > 100 µM | TGI [2]: > 100 µM | TGI [3]: > 100 µM | TGI [5]: > 100 µM | TGI [6]: > 100 µM | TGI [7]: > 100 µM | TGI [8]: > 100 µM

COC(=O)C[CH2][Ge]([CH3])([CH3])[S]c1ccccc1
GI50 [2]: 42.6 µM | TGI [2]: > 100 µM | GI50 [3]: > 100 µM | TGI [3]: > 100 µM | GI50 [4]: 38.4 µM | TGI [4]: > 100 µM | GI50 [5]: 24 µM | TGI [5]: 81.1 µM | GI50 [6]: 36.8 µM | TGI [6]: > 100 µM | GI50 [7]: 59.5 µM | TGI [7]: > 100 µM

C[C@]12CC[C@H]3[C@@H](CCC4=CC(=O)CC[C@@]43C)[C@@H]1CC[C@@H]2C(=O)COS(=O)(=O)c1ccc(Br)cc1
TGI [9]: 33.8 µM

CSCC[C@H](NC(=O)[C@H](CC(C)C)NC(=O)[C@@H](Cc1ccccc1)NC(=O)CNC(=O)[C@@H](NC(=O)[C@H](C)NC(=O)[C@H](Cc1c[nH]c2ccccc12)NC(=O)[C@H](CCC(N)=O)NC(=O)[C@H](N)CC(N)=O)C(C)C)C(N)=O
TGI [9]: > 12.5 µM

O=C(/C=C/c1ccccc1Cl)c1cccc2ccccc12
TGI [1]: 15.2 µM | TGI [2]: 31.6 µM | TGI [3]: 29.7 µM | TGI [4]: 19.6 µM | TGI [5]: 11.9 µM | TGI [6]: 23.5 µM | TGI [7]: 44.8 µM

CC(=O)[CH-]C(=O)c1ccccc1.CC(=O)[CH-]C(=O)c1ccccc1.CC[C@H](/C=C/C(C)[C@H]1CCC2[C@@H]3CC=C4C[C@@H]([O-])CC[C@]4(C)C3CC[C@@]21C)C(C)C.CC[O-].[Ti+4] (some centres undefined)
GI50 [2]: > 100 µM | TGI [2]: > 100 µM | GI50 [4]: > 100 µM | TGI [4]: > 100 µM | GI50 [5]: > 100 µM | TGI [5]: > 100 µM | GI50 [6]: > 100 µM | TGI [6]: > 100 µM

COc1ccc2c(c1)C1OCCNC1CC2 (centres undefined)
TGI [9]: > 100 µM

Cc1ccc(NC(=O)CC/C(CC(=O)C(C)(C)C)=N/NC(=O)C[N+](C)(C)C)cc1C
TGI [1]: > 100 µM | TGI [3]: > 100 µM | TGI [4]: > 100 µM | TGI [5]: > 100 µM | TGI [6]: > 100 µM | TGI [7]: > 100 µM

NC(=S)N/N=C/c1ccc(N)cn1
TGI [9]: > 10 µM

c1cc(CSSCc2ccncc2)ccn1
TGI [9]: 62.9 µM

COC(C(=O)C(O)C(C)O)C1Cc2cc3cc(OC4CC(OC5CC(O)C(O)C(C)O5)C(O)C(C)O4)c(C)c(O)c3c(O)c2C(=O)C1OC1CC(OC2CC(O)C(OC3CC(C)(O)C(O)C(C)O3)C(C)O2)C(O)C(C)O1 (centres undefined)
GI50 [1]: 0.0556 ng/mL | TGI [1]: 0.479 ng/mL | GI50 [2]: 0.0407 ng/mL | TGI [2]: 2.4 ng/mL | outcome [3]: inactive | outcome [4]: inactive | GI50 [6]: 0.0253 ng/mL | TGI [6]: 0.31 ng/mL | GI50 [9]: 13.9 ng/mL and 25.8 ng/mL | TGI [9]: 128 ng/mL and 328 ng/mL | GI50 [7]: 0.0424 ng/mL | TGI [7]: 21.4 ng/mL | outcome [8]: inactive

COc1ccc2c(Cc3c4ccccc4cc4ccccc34)cncc2c1O
TGI [9]: 4.55 µM

Cc1cc(=O)n2c3c(c4c(cc13)c(CO)cc(=O)n4C)OC2
TGI [1]: 47.5 µM | TGI [2]: > 100 µM | TGI [3]: 62.6 µM | TGI [4]: > 100 µM | TGI [5]: 34 µM | TGI [6]: 46.4 µM | TGI [7]: > 100 µM | TGI [8]: 32.4 µM

c1ccc(CN2CCC3(CC2)SSC2(CCN(Cc4ccccc4)CC2)SS3)cc1
TGI [9]: > 100 µM

CC1(c2cccc(N)c2)C2C(=O)NC(=O)C1C(=O)NC2=O (centres undefined)
TGI [1]: 96.9 µM | TGI [2]: 73.3 µM | TGI [4]: > 100 µM | TGI [5]: > 100 µM | TGI [6]: > 100 µM | TGI [7]: > 100 µM | TGI [8]: 64.4 µM

CSc1nc2c(nc(N)n2C2OC(COC(C)=O)C(OC(C)=O)C(OC(C)=O)C2OC(C)=O)c(=O)n1C (centres undefined)
TGI [1]: > 100 µM | TGI [3]: > 100 µM | TGI [4]: > 100 µM | TGI [5]: > 100 µM | TGI [7]: > 100 µM | TGI [8]: > 100 µM

CC(=O)[CH-]C(=O)c1ccccc1.CC(=O)[CH-]C(=O)c1ccccc1.CC1(C)OCC(C2OC3OC(C)(C)OC3C2[O-])O1.CC1(C)OCC(C2OC3OC(C)(C)OC3C2[O-])O1.[Ti+4] (centres undefined)
GI50 [4]: 29.6 µM | TGI [4]: > 100 µM | GI50 [5]: 11.5 µM | TGI [5]: 24 µM | GI50 [6]: 4.91 µM | TGI [6]: > 100 µM

CCC(CCC(C)C1CCC2C3CC=C4CC(OC5OC(CO)C(O)C(O)C5O)CCC4(C)C3CCC12C)C(C)C (centres undefined)
TGI [9]: > 100 µM

Cn1c2ccccc2c(=O)c2c(O)cc3c(c21)CC(C1(C)CO1)O3 (centres undefined)
TGI [1]: 5.11 µM | TGI [2]: 49.2 µM | TGI [3]: > 93.2 µM | TGI [4]: 31.8 µM | TGI [5]: 1.5 µM | TGI [9]: 2.73 µM | TGI [8]: 4.73 µM

C=C1COC(O)(C2OCOC(C3CC(=O)NC(=O)C3)C2O)C1C (centres undefined)
TGI [1]: 0.0271 µM and 0.0437 µM | TGI [2]: 0.0283 µM and 0.0417 µM | GI50 [3]: 0.0112 µM | TGI [3]: 0.035 µM and 0.0686 µM | TGI [4]: 0.0281 µM and 0.0721 µM | TGI [5]: 0.0897 µM and 0.101 µM | TGI [6]: 0.00849 µM and 0.0215 µM | TGI [9]: 0.0289 µM | TGI [7]: 0.0971 µM and 0.0358 µM

CSc1ccc(OCC2OC2O)cc1 (centres undefined)
TGI [1]: 86.3 µM | TGI [2]: > 100 µM | TGI [3]: > 100 µM | TGI [4]: > 100 µM | TGI [5]: > 100 µM | TGI [6]: > 100 µM | TGI [7]: > 100 µM | TGI [8]: 78.7 µM

C1COCCOCCOCCOCCOCCO1.[Cl][Sn]([Cl])([c]1ccccc1)[c]1ccccc1
GI50 [4]: 7.02 µM | TGI [4]: 18.2 µM

CC1(C)CCCC(C)(C2CCC3(C)C2C(O)CC2C4(C)CCC(O)C(C)(C)C4C(O)CC23C)O1 (centres undefined)
TGI [9]: 30.8 µM

COc1cc2oc(-c3ccc(O)cc3O)c(CC=C(C)C)c(=O)c2c(O)c1/C=C/C(C)C
TGI [9]: 8.34 µM

COC(=O)NN1C(C)=C(C(=O)OC)C2(C#N)C(C(=O)OC)=C(C)N(NC(=O)OC)C12N (centres undefined)
TGI [1]: > 100 µM | TGI [2]: > 100 µM | TGI [3]: > 100 µM | TGI [4]: > 100 µM | TGI [5]: > 100 µM | TGI [6]: > 100 µM | TGI [7]: > 100 µM | TGI [8]: > 100 µM

C/C(=N\NC(=S)N1CCN(C2CCCCCC2)CC1)c1ccccn1
GI50 [1]: < 0.001 µM | TGI [1]: 0.0461 µM and < 0.0408 µM | GI50 [2]: < 0.001 µM | TGI [2]: 8.26 µM and 2.19 µM | GI50 [3]: 0.422 µM | TGI [3]: 7.89 µM | GI50 [4]: 3.83 µM | TGI [4]: 8.96 µM and 2.07 µM | TGI [5]: 2.67 µM | GI50 [6]: 0.928 µM | TGI [6]: 3.37 µM | GI50 [7]: 4.58 µM | TGI [7]: 19 µM

COC(=O)NC(=Nc1ccc(Oc2ccccc2)cc1NC=O)NC(=O)OC
TGI [1]: 0.864 µM | TGI [3]: > 100 µM | TGI [4]: 0.49 µM | TGI [5]: > 100 µM | TGI [6]: > 100 µM | TGI [8]: 6.75 µM
